Measured values taken from PubChem BioAssay AID2060886 (Molecular Pharmacology Branch, DTP, NCI, 2025).
“And” between values parts separate entries of the source, which are not always exact repeats. Equal values may be shown once.

Test system: 653999-131-R-J2-PDC complex spheroids, growth inhibition
Assay: Anticancer human tumor 653999-131-R-J2-PDC patient-derived lung adenocarcinoma cell line growth inhibition [RAS]
Conditions: for viability, T/C: stronger effect = lower value
How it was run: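 Multi-cell-type spheroids: tumor cells plus HUVEC endothelial cells and mesenchymal stem cells. RAS-pathway inhibitors were combined with targeted agents, each dosed in half-log steps down from clinical Cmax, or from 10 microM when Cmax was unknown.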

[1] = curve of first compound, second compound 0.00316 µM
[2] = curve of first compound, second compound 0.01 µM
[3] = curve of first compound, second compound 0.0316 µM
[4] = curve of first compound, second compound 0.1 µM
[5] = curve of first compound, second compound 0.316 µM
[6] = curve of first compound, second compound 1 µM
[7] = second compound 0.00316 µM, first compound 0.0316 µM
[8] = second compound 0.00316 µM, first compound 0.1 µM
[9] = second compound 0.01 µM, first compound 0.0316 µM
[10] = second compound 0.01 µM, first compound 0.1 µM
[11] = second compound 0.0316 µM, first compound 0.0316 µM
[12] = second compound 0.0316 µM, first compound 0.1 µM
[13] = second compound 0.1 µM, first compound 0.0316 µM
[14] = second compound 0.1 µM, first compound 0.1 µM
[15] = second compound 0.316 µM, first compound 0.0316 µM
[16] = second compound 0.316 µM, first compound 0.1 µM
[17] = second compound 1 µM, first compound 0.0316 µM
[18] = second compound 1 µM, first compound 0.1 µM
[19] = second compound 0.0316 µM, first compound 0.316 µM
[20] = second compound 0.0316 µM, first compound 1 µM
[21] = second compound 0.0316 µM, first compound 3.16 µM
[22] = second compound 0.0316 µM, first compound 10 µM
[23] = second compound 0.1 µM, first compound 0.316 µM
[24] = second compound 0.1 µM, first compound 1 µM
[25] = second compound 0.1 µM, first compound 3.16 µM
[26] = second compound 0.1 µM, first compound 10 µM
[27] = second compound 0.316 µM, first compound 0.316 µM
[28] = second compound 0.316 µM, first compound 1 µM
[29] = second compound 0.316 µM, first compound 3.16 µM
[30] = second compound 0.316 µM, first compound 10 µM
[31] = second compound 1 µM, first compound 0.316 µM
[32] = second compound 1 µM, first compound 1 µM
[33] = second compound 1 µM, first compound 3.16 µM
[34] = second compound 1 µM, first compound 10 µM
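Also: spheroids exposed to the agents for seven days before the readout.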

Molecule `CC(C)n1nc(-c2ccc3oc(N)nc3c2)c2c(N)ncnc21` + C=CC(=O)N1CCN(c2nc(OCC3CCCN3C)nc3c(F)c(-c4nc(N)cc(C)c4C(F)(F)F)c(Cl)cc23)C(C)C1 has an IC50 [1] of 0.0142 µM, an IC50 [2] of 0.0094 µM and an IC50 [3] of 0.0164 µM. It also gave an IC50 [4] of 0.0124 µM, an IC50 [5] of 0.0117 µM and an IC50 [6] of 0.0159 µM. For the same molecule, the viability, T/C (second compound 0.00316 µM, first compound 0.000316 µM) was 98.1%, the viability, T/C (second compound 0.00316 µM, first compound 0.001 µM) was 78.4% and the viability, T/C (second compound 0.00316 µM, first compound 0.00316 µM) was 73.5%. The viability, T/C (second compound 0.00316 µM, first compound 0.01 µM) was 52.5%, the viability, T/C [7] was 41.5% and the viability, T/C [8] was 22.6%. For the same molecule, the viability, T/C (second compound 0.01 µM, first compound 0.000316 µM) was 83.8%, the viability, T/C (second compound 0.01 µM, first compound 0.001 µM) was 97.3% and the viability, T/C (second compound 0.01 µM, first compound 0.00316 µM) was 68.8%. It also gave a viability, T/C (second compound 0.01 µM, first compound 0.01 µM) of 50.5%, a viability, T/C [9] of 35% and a viability, T/C [10] of 29.1%. The viability, T/C (second compound 0.0316 µM, first compound 0.000316 µM) was 101%, the viability, T/C (second compound 0.0316 µM, first compound 0.001 µM) was 91.3% and the viability, T/C (second compound 0.0316 µM, first compound 0.00316 µM) was 71.8%. The viability, T/C (second compound 0.0316 µM, first compound 0.01 µM) was 58.1%, the viability, T/C [11] was 40.6% and the viability, T/C [12] was 25%. For the same molecule, the viability, T/C (second compound 0.1 µM, first compound 0.000316 µM) was 77.6%, the viability, T/C (second compound 0.1 µM, first compound 0.001 µM) was 74.6% and the viability, T/C (second compound 0.1 µM, first compound 0.00316 µM) was 70.7%. It also gave a viability, T/C (second compound 0.1 µM, first compound 0.01 µM) of 55.2%, a viability, T/C [13] of 30.4% and a viability, T/C [14] of 26.3%. The viability, T/C (second compound 0.316 µM, first compound 0.000316 µM) was 92.8%, the viability, T/C (second compound 0.316 µM, first compound 0.001 µM) was 82% and the viability, T/C (second compound 0.316 µM, first compound 0.00316 µM) was 66.3%. It also gave a viability, T/C (second compound 0.316 µM, first compound 0.01 µM) of 51.1%, a viability, T/C [15] of 39.7% and a viability, T/C [16] of 27.8%. It also gave a viability, T/C (second compound 1 µM, first compound 0.000316 µM) of 90.9%, a viability, T/C (second compound 1 µM, first compound 0.001 µM) of 91.8% and a viability, T/C (second compound 1 µM, first compound 0.00316 µM) of 72%. It also gave a viability, T/C (second compound 1 µM, first compound 0.01 µM) of 55.8%, a viability, T/C [17] of 42.1% and a viability, T/C [18] of 26.6%.

For `C=CC(=O)Nc1cc(Nc2nccc(-c3cn(C)c4ccccc34)n2)c(OC)cc1N(C)CCN(C)C`, the viability, T/C (compound 0.00316 µM) was 98% [middle of 4 runs], the viability, T/C (compound 0.01 µM) was 89.8% [middle of 4 runs] and the viability, T/C (compound 0.0316 µM) was 94.7% [middle of 4 runs]. The viability, T/C (compound 1 µM) was 62.9% [middle of 4 runs] and the IC50 (curve of compound) was > 1 µM and 0.291 µM.

`NC1c2ccccc2OC12CCN(c1cnc3c(N4CCCc5ncccc54)n[nH]c3n1)CC2` (stereo unspecified) + C#Cc1c(F)ccc2cc(O)cc(-c3ncc4c(N5CC6CCC(C5)N6)nc(OCC56CCCN5CC(F)C6)nc4c3F)c12 was tested, and the IC50 [3] was > 10 µM, the IC50 [4] was 1.39 µM and the IC50 [5] was < 0.0316 µM. For the same molecule, the IC50 [6] was < 0.0316 µM, the IC50 (curve of first compound, second compound 3.16 µM) was < 0.0316 µM and the IC50 (curve of first compound, second compound 10 µM) was < 0.0316 µM. For the same molecule, the viability, T/C [11] was 72.8%, the viability, T/C [12] was 67.5% and the viability, T/C [19] was 64.5%. The viability, T/C [20] was 72.2%, the viability, T/C [21] was 71.3% and the viability, T/C [22] was 60.2%. It also gave a viability, T/C [13] of 64.5%, a viability, T/C [14] of 75.4% and a viability, T/C [23] of 60.1%. The viability, T/C [24] was 53.2%, the viability, T/C [25] was 44.6% and the viability, T/C [26] was 41.1%. The viability, T/C [15] was 48%, the viability, T/C [16] was 50.4% and the viability, T/C [27] was 40.4%. The viability, T/C [28] was 42.7%, the viability, T/C [29] was 32.6% and the viability, T/C [30] was 45.8%. For the same molecule, the viability, T/C [17] was 41.7%, the viability, T/C [18] was 34.8% and the viability, T/C [31] was 33.9%. It also gave a viability, T/C [32] of 32.4%, a viability, T/C [33] of 32.7% and a viability, T/C [34] of 19.5%. The viability, T/C (second compound 3.16 µM, first compound 0.0316 µM) was 30.3%, the viability, T/C (second compound 3.16 µM, first compound 0.1 µM) was 25.8% and the viability, T/C (second compound 3.16 µM, first compound 0.316 µM) was 16.9%. It also gave a viability, T/C (second compound 3.16 µM, first compound 1 µM) of 18.1%, a viability, T/C (second compound 3.16 µM, first compound 3.16 µM) of 18.7% and a viability, T/C (second compound 3.16 µM, first compound 10 µM) of 13%. For the same molecule, the viability, T/C (second compound 10 µM, first compound 0.0316 µM) was 12%, the viability, T/C (second compound 10 µM, first compound 0.1 µM) was 7.13% and the viability, T/C (second compound 10 µM, first compound 0.316 µM) was 7.02%. For the same molecule, the viability, T/C (second compound 10 µM, first compound 1 µM) was 6.33%, the viability, T/C (second compound 10 µM, first compound 3.16 µM) was 7.29% and the viability, T/C (second compound 10 µM, first compound 10 µM) was 7.2%.

In the case of `Cc1nc(N2CCC3(CC2)COC(C)C3N)c(CO)nc1Sc1ccnc(N)c1Cl` (stereo unspecified) + C=CC(=O)N1CCN(c2nc(OCC3CCCN3C)nc3c(F)c(-c4nc(N)cc(C)c4C(F)(F)F)c(Cl)cc23)C(C)C1, the IC50 [1] is reported as > 10 µM, the IC50 [2] is reported as > 10 µM and the IC50 [3] is reported as > 10 µM. For the same molecule, the IC50 [4] was > 10 µM, the IC50 [5] was > 10 µM and the IC50 [6] was > 10 µM. For the same molecule, the viability, T/C [7] was 81.4%, the viability, T/C [8] was 76.7% and the viability, T/C (second compound 0.00316 µM, first compound 0.316 µM) was 77.9%. It also gave a viability, T/C (second compound 0.00316 µM, first compound 1 µM) of 74.6%, a viability, T/C (second compound 0.00316 µM, first compound 3.16 µM) of 83.3% and a viability, T/C (second compound 0.00316 µM, first compound 10 µM) of 78.2%. It also gave a viability, T/C [9] of 90.5%, a viability, T/C [10] of 86.5% and a viability, T/C (second compound 0.01 µM, first compound 0.316 µM) of 78.3%. It also gave a viability, T/C (second compound 0.01 µM, first compound 1 µM) of 80.6%, a viability, T/C (second compound 0.01 µM, first compound 3.16 µM) of 86.9% and a viability, T/C (second compound 0.01 µM, first compound 10 µM) of 63.9%. For the same molecule, the viability, T/C [11] was 87.2%, the viability, T/C [12] was 82.6% and the viability, T/C [19] was 93.1%. It also gave a viability, T/C [20] of 84.7%, a viability, T/C [21] of 78.1% and a viability, T/C [22] of 63.9%. For the same molecule, the viability, T/C [13] was 103%, the viability, T/C [14] was 77.6% and the viability, T/C [23] was 90.2%. It also gave a viability, T/C [24] of 73.5%, a viability, T/C [25] of 77% and a viability, T/C [26] of 70%. It also gave a viability, T/C [15] of 92%, a viability, T/C [16] of 82% and a viability, T/C [27] of 82.9%. It also gave a viability, T/C [28] of 78.4%, a viability, T/C [29] of 80.7% and a viability, T/C [30] of 73.9%. It also gave a viability, T/C [17] of 105%, a viability, T/C [18] of 66.7% and a viability, T/C [31] of 74.8%. The viability, T/C [32] was 78.3%, the viability, T/C [33] was 67.3% and the viability, T/C [34] was 82.1%.
